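Five concentrations, 48 hours, 96-well plates. The concentration for 50% growth inhibition is given as GI50.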 Calls of active or inactive are those of the source. Cut-off read from the data, not from the text of the source: active = GI50 up to about 1.1 µM and inactive = higher.
Tests used:
Test in all cases: NCI-60 cell line screen, 48 h
[1] = tested on: OVCAR-3
[2] = tested on: NCI-H522
[3] = tested on: RPMI-8226
[4] = tested on: SF-268
[5] = tested on: SR
[6] = tested on: SK-OV-3
[7] = tested on: HOP-92
[8] = tested on: PC-3
[9] = tested on: KM12
[10] = tested on: BT-549
[11] = tested on: TK-10
[12] = tested on: CAKI-1
[13] = tested on: SF-295
[14] = tested on: SK-MEL-2
[15] = tested on: OVCAR-5
[16] = tested on: CCRF-CEM
[17] = tested on: MDA-N

Measured: GI50

COc1cc([C@H]2CC(=O)C[C@H](c3cc(OC)c(OC)c(OC)c3)C23C(=O)c2ccccc2C3=O)cc(OC)c1OC
inactive: [1] 57 µM | [2] 25 µM | [3] > 100 µM | [4] > 100 µM | [5] > 100 µM | [6] 37.3 µM | [7] 33.6 µM | [8] > 100 µM | [9] > 100 µM | [10] 91.4 µM | [11] > 100 µM | [12] > 100 µM | [13] 47.1 µM | [14] 42.4 µM | [15] > 100 µM

CCCCCC(=O)NC(=S)Nc1nnn[nH]1
inactive: [16] > 100 µM | [1] > 100 µM | [2] > 100 µM | [3] > 100 µM | [17] > 100 µM | [4] > 100 µM | [5] > 100 µM | [6] > 100 µM | [7] > 100 µM | [8] > 100 µM | [9] > 100 µM | [11] > 100 µM | [12] > 100 µM | [13] > 100 µM | [14] > 100 µM | [15] > 100 µM

C/C(C=O)=C/[C@@]1(C)O[C@@H](C)[C@@](C)(O)[C@@H]1O
inactive: [16] 36.9 µM | [1] 49.1 µM | [2] 19 µM | [3] 30.9 µM | [17] 44.3 µM | [4] 25.2 µM | [5] 2.58 µM | [6] > 100 µM | [7] 37.2 µM | [8] 47.5 µM | [9] 35.4 µM | [11] 77.6 µM | [12] 19.9 µM | [13] 41.1 µM | [14] 80.5 µM | [15] > 100 µM

C=Cn1c([N+](=O)[O-])cnc1/C=C/c1ccc(C(=O)OCCN2CCOCC2)cc1
inactive: [16] > 100 µM | [1] > 100 µM | [2] > 100 µM | [3] 12 µM | [4] > 100 µM | [6] > 100 µM | [7] > 100 µM | [8] > 100 µM | [9] > 100 µM | [10] > 100 µM | [11] > 100 µM | [12] > 100 µM | [13] > 100 µM | [14] > 100 µM | [15] > 100 µM

CCOC(=O)c1c(SCCCN2CCCCC2)n(-c2ccccc2)c(=S)n(-c2ccccc2)c1=O
inactive: [16] 15.3 µM | [1] 16.7 µM | [2] 19.3 µM | [3] 6.67 µM | [17] 15 µM | [4] 37.5 µM | [5] 22 µM | [7] 14.4 µM | [8] 16.4 µM | [9] 19.2 µM | [11] 20.6 µM | [14] 16.7 µM | [15] 17.7 µM

c1ccc(CSC(SCc2ccccc2)c2ccc3c(c2)OCO3)cc1
inactive: [16] > 10 µM | [1] > 10 µM | [2] > 10 µM | [3] > 10 µM | [17] > 10 µM | [4] > 10 µM | [6] 6.44 µM | [7] > 10 µM | [8] > 10 µM | [9] > 10 µM | [11] > 10 µM | [12] > 10 µM | [13] > 10 µM | [14] > 10 µM

CC(C)N1CN(c2ccccc2)C2(CCN(CCCC(=O)c3ccc(F)cc3)CC2)C1=O
inactive: [16] 1.83 µM | [1] 22 µM | [2] 21 µM | [3] 10.3 µM | [17] 14.9 µM | [4] 6.7 µM | [5] 18.1 µM | [6] 42 µM | [7] 3.78 µM | [8] 18.9 µM | [9] 22 µM | [11] 12.1 µM | [12] 4.13 µM | [13] 10.8 µM | [14] 14 µM | [15] 5.42 µM

Reference: ChEMBL document CHEMBL1201862, “PubChem BioAssay data set” (2004)
